Assay results from patent US20220096364A1, “Oral Care Compositions Comprising Prenylated Flavonoid” (The Procter & Gamble Company, priority 2020, published 2022).
≈ marks a conversion by molar mass, not a printed value.

Experiments:
[1] = test system: Porphyromonas gingivalis (ATCC strain 33277); assay: Minimum inhibitory concentration (MIC) against Porphyromonas gingivalis, 2-fold serial dilution in Minimal Medium+, visual scoring; assay type: cell-based; settings: P. gingivalis ATCC 33277, Minimal Medium+, overnight at 35° C., anaerobic chamber; for MIC: Porphyromonas gingivalis, ATCC33277
Description: The minimum inhibitory concentration (MIC) values against Porphyromonas gingivalis for a collection of prenylated flavonoids of varying octanol/water partition coefficients (Log P) were determined using a conventional protocol. A culture of Porphyromonas gingivalis (P. gingivalis, ATCC strain 33277) from glycerol stock was grown with a gas mix of 85% nitrogen, 10% CO2, and 5% hydrogen for 48-72 hours at 33° C. by inoculating a large loopful in MTGE (Anaerobe Systems, Morgan Hill, Calif., USA). Following incubation in MTGE, the optical density was adjusted to deliver a target count of between 2×10^7 and 2×10^8 CFU/mL using a turbidimetric target density at 600 nm using P. gingivalis Minimal Medium+. Minimal Medium+ is a growth medium containing 10 mM monosodium phosphate, 10 mM potassium chloride, 10 mM magnesium chloride, 7.7 μM hemin, 2.9 μM menadione, 30 g/L alphaglobuline from bovine blood, 250 μM calcium chloride, 100 mL/L fetal bovine serum, adjusted to pH 7.0 with NaOH. It is made by mixing alphaglobuline in water, adding salts, adjusting to pH 7.0 with NaOH, filtering using […] filter, then adding hemin, menadione, and fetal bovine serum.
The inoculum was then diluted 1/50 in Minimal Medium+ for P. gingivalis. A volume of 100 μL of inoculum was added to a row of wells (12 wells per row) of a 96-well plate for which the MIC value of a test compound would be determined. An additional 95 μL of inoculum was added to the first well in that row. For each compounded tested obtained as a pure isolate in DMSO (Phytolab GmbH, Germany), 5 μL of a stock solution (2 mg compound/mL DMSO) was also added to the first well in that row. Then, a 2-fold serial dilution was performed where 100 μL of the first well was transferred to the second well in a row and mixed with 100 μL of growth medium. This was repeated until the last well of a row was reached. In the last well, 100 μL was discarded such that all wells contained 100 μL. The plates were covered and incubated overnight at 35° C. in an anaerobic chamber (85/10/5; N2, CO2, H2) without agitation. The procedure was repeated row by row until each compound was serially diluted. Multiple plates were used if necessary. […] The MIC value was determined for each compounded tested in a row by identifying the well with the lowest concentration of test compound in the serial dilution necessary to maintain a clear well.

[2] = test system: Streptococcus mutans (ATCC strain 25175); assay: Minimum inhibitory concentration (MIC) against Streptococcus mutans, 2-fold serial dilution in broth, visual scoring; assay type: cell-based; settings: S. mutans ATCC 25175, TSB, overnight at 35° C., anaerobic chamber; for MIC: Streptococcus mutans, ATCC25175
Description: The minimum inhibitory concentration (MIC) values against Streptococcus mutans for a collection of prenylated flavonoids of varying octanol/water partition coefficients (Log P) were determined using a conventional protocol. A culture of Streptococcus mutans (S. mutans, ATCC strain 25175) was grown overnight (18-24 hour incubation time at 35° C.) in a Tryptone Soy Broth (TSB. BD, Becton, Dickinson and Company, Sparks, Md., USA) and adjusted to deliver a target count of between 2×10^7 and 2×10^8 CFU/mL using a turbidimetric target density at 600 nm. The inoculum was then diluted 1/1000 in TSB for S. mutans. A volume of 100 μL of inoculum was added to a row of wells (12 wells per row) of a 96-well plate for which the MIC value of a test compound would be determined. An additional 95 μL of inoculum was added to the first well in that row. For each compounded tested obtained as a pure isolate in DMSO (Phytolab GmbH, Germany), 5 μL of a stock solution (2 mg compound/mL DMSO) was also added to the first well in that row. Then, a 2-fold serial dilution was performed where 100 μL of the first well was transferred to the second well in a row and mixed with 100 μL of growth medium. This was repeated until the last well of a row was reached. In the last well, 100 μL was discarded such that all wells contained 100 μL. The plates were covered and incubated overnight at 35° C. in an anaerobic chamber (85/10/5; N2, CO2, H2) without agitation. The procedure was repeated row by row until each compound was serially diluted. Multiple plates were used if necessary. […] The MIC value was determined for each compounded tested in a row by identifying the well with the lowest concentration of test compound in the serial dilution necessary to maintain a clear well.

| Compound | MIC [1] [µg/mL] | MIC [2] [µg/mL] | MIC (P. gingivalis) [1] [ppm] | MIC (S. mutans) [2] [ppm] |
| --- | --- | --- | --- | --- |
| COc1cc(O)c(CC=C(C)C)c2c1C(=O)CC(c1ccc(O)cc1)O2 (stereo not shown) [Isoxanthohumol] | 25 (≈ 70.5 µM) | 50 (≈ 141 µM) |  |  |
| CC(C)=CCc1cc([C@@H]2CC(=O)c3ccc(O)c(CC=C(C)C)c3O2)cc(CC=C(C)C)c1O [(−)-Sophoranone] |  |  | 50 | 125 |
| COc1cc(O)c(CC=C(C)C)c(O)c1C(=O)/C=C/c1ccc(O)cc1 [Xanthohumol] | 12.5 (≈ 35.3 µM) | 3.12 (≈ 8.82 µM) |  |  |
| COc1ccc(-c2oc3c(CC=C(C)C)c(O[C@@H]4O[C@H](CO)[C@@H](O)[C@H](O)[C@H]4O)cc(O)c3c(=O)c2O[C@@H]2O[C@@H](C)[C@H](O)[C@@H](O)[C@H]2O)cc1 [Icariin] | 50 (≈ 73.9 µM) | > 500 |  |  |
| CC(C)=CCc1cc(C(=O)/C=C/c2ccc(O)cc2)c(O)cc1O [Bavachalcone] |  |  | 12.5 | 3.125 |
| CC(C)=CCC/C(C)=C/Cc1cc(-c2coc3cc(O)ccc3c2=O)ccc1O [Corylifol A] |  |  | 15.625 | >500 |
| COc1cc(O)c(C(=O)[C@@H]2[C@H](CC=C(C)C)C(C)=CC[C@H]2c2ccccc2)c(O)c1 [Panduratin A] |  |  | 0.488 | 0.7813 |
| CC(C)=CCc1c(O)cc2c(c1O)C(=O)C[C@@H](c1ccc(O)cc1)O2 [6-Prenylnaringenin] | 25 (≈ 73.4 µM) | 15.6 (≈ 45.9 µM) |  |  |
| C=C(C)[C@H](CC=C(C)C)Cc1c(O)cc(O)c2c1O[C@H](c1ccc(O)cc1O)CC2=O [Sophoraflavanone G] |  |  | 12.5 | 1.5625 |
| CC(C)=CCc1c(-c2ccc(O)cc2O)oc2c(CC=C(C)C)c(O)cc(O)c2c1=O [Kuwanon C] |  |  | 7.8125 | 0.9766 |
| CC(C)=CCc1c(O)ccc(C(=O)/C=C/c2ccc(O)cc2)c1O [Isobavachalcone] | 12.5 (≈ 38.5 µM) | 1.56 (≈ 4.82 µM) |  |  |
| C=C(C)[C@H](CC=C(C)C)Cc1c(O)cc(OC)c2c1O[C@H](c1ccc(O)cc1O)CC2=O [Kurarinone] | 15.6 (≈ 35.6 µM) | 3.91 (≈ 8.91 µM) |  |  |
| COc1ccc(-c2oc3c(CC=C(C)C)c(O)cc(O)c3c(=O)c2O)cc1 [Icaritin] | > 500 | > 500 |  |  |
| CC(C)=CCc1cc(-c2coc3cc(O)ccc3c2=O)ccc1O [Neobavaisoflavone] | 31.2 (≈ 96.9 µM) | 12.5 (≈ 38.8 µM) |  |  |
| CC(C)=CCc1cc2c(cc1O)O[C@H](c1ccc(O)cc1)CC2=O [Bavachin] | 31.2 (≈ 96.3 µM) | > 500 |  |  |
| CC(C)=CCc1c(O)cc(O)c2c1O[C@H](c1ccc(O)cc1)CC2=O [8-Prenylnaringenin] | 50 (≈ 147 µM) | 12.5 (≈ 36.7 µM) |  |  |
| CC(C)=CCc1c(-c2ccc(O)cc2O)oc2c([C@H]3C=C(C)C[C@@H](c4ccc(O)cc4O)[C@@H]3C(=O)c3ccc(O)cc3O)c(O)cc(O)c2c1=O [Kuwanon G] |  |  | 125 | 3.125 |
